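Where inhibition never reached the appropriate level, the endpoint shown equals the highest concentration tested. Otherwise, values were interpolated linearly from a five-concentration, 48-hour dose response in 96-well plates. Abbreviation: GI50, concentration required for 50% inhibition of growth. Definition used: TGI = concentration required for complete inhibition of growth.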
Tests used:
Experiment in all cases: NCI anticancer screen, dose series, 48 h
SNB-75 CNS = tested on: SNB-75 CNS
SF-268 CNS = tested on: SF-268 CNS
HOP-62 NSCLC = tested on: HOP-62 NSCLC
OVCAR-5 ovarian = tested on: OVCAR-5 ovarian
DU-145 prostate = tested on: DU-145 prostate
OVCAR-4 ovarian = tested on: OVCAR-4 ovarian
K-562 leukemia = tested on: K-562 leukemia
RXF 393 renal = tested on: RXF 393 renal
A549 NSCLC = tested on: A549 NSCLC
UO-31 renal = tested on: UO-31 renal
CCRF-CEM leukemia = tested on: CCRF-CEM leukemia
NCI/ADR-RES ovarian = tested on: NCI/ADR-RES ovarian
NCI-H522 lung = tested on: NCI-H522 lung
A498 renal = tested on: A498 renal
MOLT-4 leukemia = tested on: MOLT-4 leukemia
T-47D breast = tested on: T-47D breast
IGROV1 ovarian = tested on: IGROV1 ovarian
BT-549 breast = tested on: BT-549 breast
HCT-15 colon = tested on: HCT-15 colon
SK-MEL-5 melanoma = tested on: SK-MEL-5 melanoma
PC-3 prostate = tested on: PC-3 prostate
M14 melanoma = tested on: M14 melanoma
OVCAR-8 ovarian = tested on: OVCAR-8 ovarian
HL-60(TB) leukemia = tested on: HL-60(TB) leukemia
NCI-H460 lung = tested on: NCI-H460 lung
SK-OV-3 ovarian = tested on: SK-OV-3 ovarian
U251 CNS = tested on: U251 CNS
EKVX NSCLC = tested on: EKVX NSCLC
COLO 205 colon = tested on: COLO 205 colon
TK-10 renal = tested on: TK-10 renal
LOX IMVI melanoma = tested on: LOX IMVI melanoma
HS 578T breast = tested on: HS 578T breast
SK-MEL-2 melanoma = tested on: SK-MEL-2 melanoma
MALME-3M melanoma = tested on: MALME-3M melanoma
SN12C renal = tested on: SN12C renal
NCI-H23 lung = tested on: NCI-H23 lung
UACC-62 melanoma = tested on: UACC-62 melanoma
NCI-H226 lung = tested on: NCI-H226 lung
OVCAR-3 ovarian = tested on: OVCAR-3 ovarian
786-0 renal = tested on: 786-0 renal
RPMI-8226 leukemia = tested on: RPMI-8226 leukemia
SF-539 CNS = tested on: SF-539 CNS
KM12 colon = tested on: KM12 colon
SF-295 CNS = tested on: SF-295 CNS
HT29 colon = tested on: HT29 colon
SR leukemia = tested on: SR leukemia
SW-620 colon = tested on: SW-620 colon
HOP-92 NSCLC = tested on: HOP-92 NSCLC
MDA-MB-435 = tested on: MDA-MB-435
SK-MEL-28 melanoma = tested on: SK-MEL-28 melanoma
HCC-2998 colon = tested on: HCC-2998 colon
UACC-257 melanoma = tested on: UACC-257 melanoma
SNB-19 CNS = tested on: SNB-19 CNS
ACHN renal = tested on: ACHN renal
MDA-MB-231 breast = tested on: MDA-MB-231 breast
MCF7 breast = tested on: MCF7 breast
HCT-116 colon = tested on: HCT-116 colon
CAKI-1 renal = tested on: CAKI-1 renal

## [2H]c1nc(C)nc([2H])c1-c1cc(NC[C@@H](C)c2cccc3c(C(=O)NC)ccnc23)ncn1
SNB-75 CNS
  GI50: > 100 µM
  TGI: > 100 µM
SF-268 CNS
  GI50: > 100 µM
  TGI: > 100 µM
HOP-62 NSCLC
  GI50: > 100 µM
  TGI: > 100 µM
OVCAR-5 ovarian
  GI50: > 100 µM
  TGI: > 100 µM
DU-145 prostate
  GI50: > 100 µM
  TGI: > 100 µM
OVCAR-4 ovarian
  GI50: > 100 µM
  TGI: > 100 µM
K-562 leukemia
  GI50: 80.6 µM
  TGI: > 100 µM
RXF 393 renal
  GI50: > 100 µM
  TGI: > 100 µM
A549 NSCLC
  GI50: > 100 µM
  TGI: > 100 µM
UO-31 renal
  GI50: > 100 µM
  TGI: > 100 µM
CCRF-CEM leukemia
  GI50: 65.1 µM
  TGI: > 100 µM
NCI/ADR-RES ovarian
  GI50: > 100 µM
  TGI: > 100 µM
NCI-H522 lung
  GI50: 46.4 µM
  TGI: > 100 µM
A498 renal
  GI50: > 100 µM
  TGI: > 100 µM
MOLT-4 leukemia
  GI50: > 100 µM
  TGI: > 100 µM
T-47D breast
  GI50: 29 µM
  TGI: > 100 µM
IGROV1 ovarian
  GI50: > 100 µM
  TGI: > 100 µM
BT-549 breast
  GI50: > 100 µM
  TGI: > 100 µM
HCT-15 colon
  GI50: > 100 µM
  TGI: > 100 µM
SK-MEL-5 melanoma
  GI50: 60.1 µM
  TGI: > 100 µM
PC-3 prostate
  GI50: > 100 µM
  TGI: > 100 µM
M14 melanoma
  GI50: > 100 µM
  TGI: > 100 µM
OVCAR-8 ovarian
  GI50: > 100 µM
  TGI: > 100 µM
HL-60(TB) leukemia
  GI50: > 100 µM
  TGI: > 100 µM
NCI-H460 lung
  GI50: > 100 µM
  TGI: > 100 µM
SK-OV-3 ovarian
  GI50: > 100 µM
  TGI: > 100 µM
U251 CNS
  GI50: > 100 µM
  TGI: > 100 µM
EKVX NSCLC
  GI50: > 100 µM
  TGI: > 100 µM
COLO 205 colon
  GI50: > 100 µM
  TGI: > 100 µM
TK-10 renal
  GI50: > 100 µM
  TGI: > 100 µM
LOX IMVI melanoma
  GI50: > 100 µM
  TGI: > 100 µM
HS 578T breast
  GI50: > 100 µM
  TGI: > 100 µM
SK-MEL-2 melanoma
  GI50: > 100 µM
  TGI: > 100 µM
MALME-3M melanoma
  GI50: > 100 µM
  TGI: > 100 µM
SN12C renal
  GI50: > 100 µM
  TGI: > 100 µM
NCI-H23 lung
  GI50: > 100 µM
  TGI: > 100 µM
UACC-62 melanoma
  GI50: 90.9 µM
  TGI: > 100 µM
NCI-H226 lung
  GI50: > 100 µM
  TGI: > 100 µM
OVCAR-3 ovarian
  GI50: > 100 µM
  TGI: > 100 µM
786-0 renal
  GI50: > 100 µM
  TGI: > 100 µM
RPMI-8226 leukemia
  GI50: 78.5 µM
  TGI: > 100 µM
SF-539 CNS
  GI50: > 100 µM
  TGI: > 100 µM
KM12 colon
  GI50: > 100 µM
  TGI: > 100 µM
SF-295 CNS
  GI50: > 100 µM
  TGI: > 100 µM
HT29 colon
  GI50: > 100 µM
  TGI: > 100 µM
SR leukemia
  GI50: 63.1 µM
  TGI: > 100 µM
SW-620 colon
  GI50: > 100 µM
  TGI: > 100 µM
HOP-92 NSCLC
  GI50: > 100 µM
  TGI: > 100 µM
MDA-MB-435
  GI50: 32.7 µM
  TGI: > 100 µM
SK-MEL-28 melanoma
  GI50: > 100 µM
  TGI: > 100 µM
HCC-2998 colon
  GI50: > 100 µM
  TGI: > 100 µM
UACC-257 melanoma
  GI50: > 100 µM
  TGI: > 100 µM
SNB-19 CNS
  GI50: > 100 µM
  TGI: > 100 µM
ACHN renal
  GI50: > 100 µM
  TGI: > 100 µM
MDA-MB-231 breast
  GI50: > 100 µM
  TGI: > 100 µM

## CN(CCCNC(=O)c1nn(-c2ccccc2)c2c1ccc1ccccc12)CCCNC(=O)c1nn(-c2ccccc2)c2c1ccc1ccccc12
SNB-75 CNS
  TGI: 2.88 µM
SF-268 CNS
  TGI: 3.39 µM
HOP-62 NSCLC
  TGI: 3.69 µM
OVCAR-5 ovarian
  TGI: 5.24 µM
DU-145 prostate
  TGI: 3.92 µM
OVCAR-4 ovarian
  TGI: 3.02 µM
A549 NSCLC
  TGI: 2.85 µM
UO-31 renal
  TGI: 2.91 µM
CCRF-CEM leukemia
  TGI: 0.628 µM
NCI/ADR-RES ovarian
  TGI: 3.53 µM
NCI-H522 lung
  TGI: 3.17 µM
MOLT-4 leukemia
  TGI: 3.42 µM
T-47D breast
  TGI: 3.78 µM
IGROV1 ovarian
  TGI: 2.87 µM
BT-549 breast
  TGI: 3.04 µM
HCT-15 colon
  TGI: 3.16 µM
PC-3 prostate
  TGI: 2.77 µM
M14 melanoma
  TGI: 3.16 µM
OVCAR-8 ovarian
  TGI: 3.38 µM
HL-60(TB) leukemia
  TGI: 3.07 µM
NCI-H460 lung
  TGI: 2.97 µM
SK-OV-3 ovarian
  TGI: 3.38 µM
U251 CNS
  TGI: 3.01 µM
EKVX NSCLC
  TGI: 3.1 µM
COLO 205 colon
  TGI: 3.63 µM
TK-10 renal
  TGI: 3.58 µM
LOX IMVI melanoma
  TGI: 2.95 µM
HS 578T breast
  TGI: > 100 µM
SK-MEL-2 melanoma
  TGI: 3.15 µM
MALME-3M melanoma
  TGI: 3.47 µM
SN12C renal
  TGI: 3.32 µM
UACC-62 melanoma
  TGI: 3.03 µM
MCF7 breast
  TGI: 3.32 µM
OVCAR-3 ovarian
  TGI: 2.73 µM
HCT-116 colon
  TGI: 3.13 µM
SF-539 CNS
  TGI: 3.62 µM
KM12 colon
  TGI: 3.96 µM
SF-295 CNS
  TGI: 3.69 µM
HT29 colon
  TGI: 3.2 µM
CAKI-1 renal
  TGI: 2.7 µM
SR leukemia
  TGI: 2.75 µM
MDA-MB-435
  TGI: 2.92 µM
SK-MEL-28 melanoma
  TGI: 3.01 µM
UACC-257 melanoma
  TGI: 3.65 µM
SNB-19 CNS
  TGI: 3.29 µM
ACHN renal
  TGI: 3.17 µM

— PubChem BioAssay (NCI)
